Experimental data: patent US20130059850A1, “AZA-INDOLE DERIVATIVES USEFUL AS MODULATORS OF FAAH” (MERCK SHARP & DOHME CORP., priority 2010, published 2013)

How the values were obtained:
[1] = target: T1, human FAAH (Fatty Acid Amide Hydrolase) (Homo sapiens, UniProt O00519); test: FAAH enzyme assay on CHO cell lysate expressing human FAAH (human LY), AAMCA fluorescent substrate; type: biochemical; conditions: human FAAH_CHO cell lysate
T1 construct: The full length FAAH was subcloned into the mammalian expression vector, pcDEF.neo, using XbaI and EcoRI restriction sites; expressed in transfected cells
T1 sequence (O00519 1-579): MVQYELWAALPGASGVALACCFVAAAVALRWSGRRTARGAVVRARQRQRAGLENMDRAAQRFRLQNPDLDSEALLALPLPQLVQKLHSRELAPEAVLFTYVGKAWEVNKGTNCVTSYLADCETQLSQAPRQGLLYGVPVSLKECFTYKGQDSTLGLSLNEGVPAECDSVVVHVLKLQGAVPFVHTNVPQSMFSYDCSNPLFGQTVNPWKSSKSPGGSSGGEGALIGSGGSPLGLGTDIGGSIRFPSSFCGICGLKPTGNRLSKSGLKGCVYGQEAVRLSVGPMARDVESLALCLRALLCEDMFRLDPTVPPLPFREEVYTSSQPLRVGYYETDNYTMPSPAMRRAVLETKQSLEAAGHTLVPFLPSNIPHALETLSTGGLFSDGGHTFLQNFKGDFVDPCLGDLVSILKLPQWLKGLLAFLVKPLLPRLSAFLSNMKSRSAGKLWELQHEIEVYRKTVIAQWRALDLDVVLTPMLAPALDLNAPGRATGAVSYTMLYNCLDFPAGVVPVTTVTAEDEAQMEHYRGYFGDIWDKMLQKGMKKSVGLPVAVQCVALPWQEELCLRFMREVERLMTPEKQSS
Method in brief: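 CHO cell lysate expressing full-length human FAAH, preincubated with compound 15 min at 22-25° C. in pH 8.0 phosphate buffer with 200 mM KCl and 0.1% fatty-acid-free BSA. 1 μM AAMCA final, 1-3 h at room temperature; 7-amino-4-methylcoumarin release read by fluorescence (Ex 360, Em 460 nm).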

[2] = target: T1, human FAAH (Fatty Acid Amide Hydrolase); test: FAAH whole cell assay on CHO cells expressing human FAAH (human WC), AAMCA fluorescent substrate; type: cell-based; conditions: human FAAH_CHO whole cell
Method in brief: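 CHO cells stably expressing full-length human FAAH, harvested with enzyme-free dissociation and resuspended at 4×10^4 cells/assay (96-well) or 1×10^4 (384-well) in 50 mM phosphate pH 8.0, 1 mM EDTA, 200 mM KCl, 0.2% glycerol, 0.1% BSA.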

Row | IC50 [1] | IC50 [2] | Compound
1 | 33.5 nM | 344 nM | Clc1ccc(Sc2c(-c3cnn4c3CCCC4)[nH]c3ncccc23)cc1 [Example B35]
2 | 13.4 nM | 32.7 nM | O[C@H]1CC[C@H](c2[nH]c3ncccc3c2Sc2ccc(Cl)cn2)CC1 [Example D6, trans-4-{3-[(5-chloropyridin-2-yl)sulfanyl]-1H-pyrrolo[2,3-b]pyridin-2-yl}cyclohexanol]
3 | 168 nM | 1300 nM | OCCn1cccc2c(Sc3ccc(Cl)cn3)c(-c3ccc4c(c3)OCCO4)nc1-2 [Example E17]
4 | 3.42 nM | 18.9 nM | COc1ccc(-c2[nH]c3ncccc3c2Sc2ccc(Cl)cc2)cn1 [Example B43]
5 | 217 nM | 1520 nM | Clc1ccc(Sc2c(-c3ccsc3)[nH]c3ncccc23)cc1 [Example B28]
6 | 208 nM | 1110 nM | Cc1noc(C)c1-c1[nH]c2ncccc2c1Sc1ccc(Cl)cc1 [Example B30]
7 | 2.84 nM | 18.3 nM | COC(=O)c1ccc(-c2[nH]c3ncccc3c2Sc2ccc(Cl)cc2)cc1 [Example A26]
8 | 28.8 nM | 76.7 nM | OCCn1cccc2c(Sc3ccc(Cl)cc3)c(-c3ccc4c(c3)OCO4)nc1-2 [Example E12]
9 | 289 nM | 1040 nM | OCCn1cccc2c(Sc3ccc(Cl)cn3)c(-c3ccc4c(c3)OCO4)nc1-2 [Example E20]
10 | 2.15 nM | 10.7 nM | Clc1ccc(Sc2c(-c3ccc4[nH]ncc4c3)[nH]c3ncccc23)cc1 [Example I3, 5-{3-[(4-chlorophenyl)sulfanyl]-1H-pyrrolo[2,3-b]pyridin-2-yl}-1H-indazole]
11 | 370 nM | 370 nM | FC(F)(F)c1ccc(/C=C/c2[nH]c3ncccc3c2Sc2ccc(Cl)cc2)cc1 [Example B39]
12 | 106 nM | 186 nM | Cn1c(-c2ccc(C(O)C(F)(F)F)cc2)c(Sc2ccc(Cl)cc2)c2cccnc21 (stereo not drawn) [Example E33]
13 | 44.1 nM | 34.4 nM | C[S+]([O-])c1ccc(-c2[nH]c3ncccc3c2Sc2ccc(Cl)cn2)cn1 (stereo not drawn) [Example A15]
14 | 8.07 nM | 53.9 nM | Cn1cccc2c(Sc3ccc(Cl)cc3)c(C3=CCC(O)CC3)nc1-2 (stereo not drawn) [Example E5]
15 | 2080 nM | 2680 nM | O=C(c1[nH]c2ncccc2c1Sc1ccc(Cl)cc1)N1CCc2ccncc21 [Example C12]
16 | 256 nM | 2630 nM | CC(C1COc2ccccc2O1)N(C)C(=O)c1[nH]c2ncccc2c1Sc1ccc(Cl)cc1 (stereo not drawn) [Example C13]
17 | 7.64 nM | 48 nM | O=C(N[C@H]1CC[C@H](O)CC1)c1[nH]c2ncccc2c1Sc1ccc(Cl)cc1 [Example C4, 3-[(4-chlorophenyl)sulfanyl]-N-(trans-4-hydroxycyclohexyl)-1H-pyrrolo[2,3-b]pyridine-2-carboxamide]
18 | 48.9 nM | 160 nM | CCn1cccc2c(Sc3ccc(Cl)cc3)c(-c3ccc4c(c3)OCO4)nc1-2 [Example E13]
19 | 6.39 nM | 16.2 nM | COc1cc(-c2[nH]c3ncccc3c2Sc2ccc(Cl)cc2)cnc1OC [Example B41]
20 | 0.508 nM | 4.62 nM | Clc1ccc(Sc2c(-c3ccc4c(c3)OCO4)[nH]c3ncccc23)cc1 [Example B4, 2-(1,3-benzodioxol-5-yl)-3-[(4-chlorophenyl)sulfanyl]-1H-pyrrolo[2,3-b]pyridine]
21 | 5870 nM | 10000 nM | OC(c1ccccc1)c1[nH]c2ncccc2c1Sc1ccc(Cl)cc1 (stereo not drawn) [Example J4, {3-[(4-chlorophenyl)sulfanyl]-1H-pyrrolo[2,3-b]pyridin-2-yl}(phenyl)methanol]
22 | 1.65 nM | 16.4 nM | Oc1ccc(-c2[nH]c3ncccc3c2Sc2ccc(Cl)cc2)cc1 [Example A23]
23 | 31.9 nM | 190 nM | Clc1ccc(Sc2c(C3=CCCOC3)[nH]c3ncccc23)cc1 [Example B17]
24 | 6.38 nM | 84.1 nM | CN(C)S(=O)(=O)c1ccc(-c2[nH]c3ncccc3c2Sc2ccc(Cl)cc2)cc1 [Example A11]
